# Measured values: patent US4250162A, “Protein binding method” (priority 1979, dated 1981)
# “And” between values parts separate entries of the source, which are not always exact repeats. Identical values can stand only once.
# Experiments:
# [1] = test system: rabbit anti-cortisol serum; assay: Competitive radioimmunoassay of cortisol in antiserum-coated plastic tubes (125I-cortisol tracer); assay type: binding
# Procedure: Urine samples are prepared for extraction by adding 200 microliters of a well mixed 24-hour urine sample to each of two disposable glass test tubes, one marked "S" and the other "E". The "E" tube is to be used to determine the efficiency of cortisol extraction from the sample. 10 microliters of cortisol standard serum (60 μg%) are mixed with the contents of the "E" tube, and 1.0 ml of chilled methylene chloride is then added to all tubes. The tubes are capped and their contents agitated to aid in the extraction of cortisol into the methylene chloride layer. After separation of the organic phase, duplicate 100 microliter aliquots of the bottom (methylene chloride) layer of each "S" and "E" tube are carefully removed and added to corresponding plastic test tubes coated with rabbit anti-cortisol serum on their lower inner surfaces, also correspondingly labeled "S" and "E". The methylene chloride is then evaporated from the four plastic test tubes by passing a stream of dry air or nitrogen into the tubes or by a mild warming of the extract to about 37° C. The tubes containing dry cortisol residue as prepared above are then assayed as follows.
# A set of plastic test tubes coated with rabbit anti-cortisol serum is numbered 1-12. The "S" and "E" tubes from the preparatory steps above are numbered 13-14 and 15-16, respectively. 0.01 ml of the reagents shown in Table 1 below are added to the designated tubes. The cortisol serum blank which is added to each "S" and "E" tube ensures that the protein content of all tubes is equal.
# 1.0 ml of ^125 I-Cortisol 3-(0-carboxymethyl)oxime-L-tyrosine in pH 7.0-7.2 phosphate buffered saline having an activity of about 0.033 μCi/ml is added to each tube with gentle mixing. All tubes are incubated in a constant temperature water bath for 45 minutes at 37° C. The contents are removed from the tubes by aspirating or decanting and the tubes counted in a gamma counter with the window suitably adjusted for iodine-125.
# [2] = test system: cortisol rabbit antiserum; assay: Effect of organic solvents on antiserum-coated polypropylene tubes: residual binding of radioiodinated tracer, cortisol antiserum; settings: tracer bound after solvent 3 hours at 50° C., tracer 45 minutes at 37° C.
# Procedure: (§1) 1 ml of petroleum ether, benzene, ether, ethyl acetate or acetone was added to a selection of cortisol, thyroxine, diphenylhydantoin and estriol rabbit antiserum-coated polypropylene tubes. The solvent level in the tubes was sufficient to immerse the antiserum coated region at the bottom of the tubes. The solvents were equilibrated with atmospheric water vapor. The solvent-containing tubes were then incubated for 3 hours at 50° C. The excess solvent was poured off and the tubes were left overnight to allow the residual solvent to evaporate. Three sets of control tubes were prepared. One set was treated with water in the same manner as the organic solvents, while another set was heated in air for the same period as the liquid-treated tubes. A final set of tubes served as an untreated control. The residual capacity of the antiserum-coated tubes to bind the respective radioiodinated tracers was determined by adding a 1 ml solution of the tracer containing 0.01 μCi to each tube containing an antiserum coating specific for that tracer, incubating for 45 minutes at 37° C., carefully decanting the tracer solution and counting the radioactivity bound to the tubes. The percent binding was calculated by dividing the bound counts by the total counts added.
# [3] = test system: thyroxine rabbit antiserum; assay: Effect of organic solvents on antiserum-coated polypropylene tubes: residual binding of radioiodinated tracer, thyroxine antiserum; settings: tracer bound after solvent 3 hours at 50° C., tracer 45 minutes at 37° C.
# Procedure: as §1
# [4] = test system: diphenylhydantoin rabbit antiserum; assay: Effect of organic solvents on antiserum-coated polypropylene tubes: residual binding of radioiodinated tracer, diphenylhydantoin antiserum; settings: tracer bound after solvent 3 hours at 50° C., tracer 45 minutes at 37° C.
# Procedure: as §1
# estriol rabbit antiserum = assay: Effect of organic solvents on antiserum-coated polypropylene tubes: residual binding of radioiodinated tracer, estriol antiserum; settings: tracer bound after solvent 3 hours at 50° C., tracer 45 minutes at 37° C.
# Procedure: as §1
# antitestosterone = assay: Standard curve for testosterone in antitestosterone-coated polypropylene tubes; assay type: binding; settings: serum standards 0.1, 0.3, 1, 3 and 10 ng testosterone/ml, ethyl acetate extraction; 45 minutes at 37° C.; semi-logarithmic plot
# Procedure: 0.6 ml of serum standards containing 0.1, 0.3, 1, 3 and 10 ng testosterone/ml were mixed with 3 ml of ethyl acetate. The phases were allowed to separate and 0.5 of the ethyl acetate layer was added to each of duplicate antitestosterone-coated tubes. After the ethyl acetate was evaporated under a stream of nitrogen, 1 ml of phosphate buffered saline at pH 7.4 was added to each tube and the testosterone residue dissolved. Five minutes later 0.1 ml of ^125 I-labeled testosterone tracer was added to each tube. After incubation for 45 minutes at 37° C., the solution was aspirated from each tube and the bound radioactivity determined in conventional fashion. […] The plot was satisfactory for use in the assay of testosterone unknowns.
Structure (SMILES),% Binding [2],% Binding [3],% Binding [4],% Binding (estriol rabbit antiserum),other results
"C[C@]12CCC(=O)C=C1CC[C@@H]1[C@@H]2[C@@H](O)C[C@@]2(C)[C@H]1CC[C@]2(O)C(=O)CO [Cortisol, cortisol]",,,,,"CPM Bound ([1]; Cortisol Serum Standard, 1.0 μg%, 100 pg/0.01 ml, 45 minutes at 37° C.): 26,030 CPM and 25,305 CPM; CPM Bound ([1]; Cortisol Serum Standard, 3.0 μg%, 300 pg/0.01 ml, 45 minutes at 37° C.): 22,083 CPM and 21,629 CPM; CPM Bound ([1]; Cortisol Serum Standard, 10 μg%, 1000 pg/0.01 ml, 45 minutes at 37° C.): 14,520 CPM and 14,698 CPM; CPM Bound ([1]; Cortisol Serum Standard, 25 μg%, 2000 pg/0.01 ml, 45 minutes at 37° C.): 8,980 CPM and 9,071 CPM; CPM Bound ([1]; Cortisol Serum Standard, 60 μg%, 6000 pg/0.01 ml, 45 minutes at 37° C.): 4,824 CPM and 5,025 CPM; CPM Bound ([1]; urine extract ""E"" tubes 15-16 (cortisol-spiked), with Cortisol Serum Blank, 0 μg%): 8,009 CPM and 7,526 CPM; CPM Bound ([1]; urine extract ""S"" tubes 13-14, with Cortisol Serum Blank, 0 μg%): 14,325 CPM and 15,110 CPM"
"CC(C)=O [Acetone, acetone]",55%,36%,43%,,
"CCOCC [Ether, ether]",55%,41%,33%,38%,
"c1ccccc1 [Benzene, benzene]",56%,52%,34%,,
C[C@]12CC[C@H]3[C@@H](CCC4=CC(=O)CC[C@@]43C)[C@@H]1CC[C@@H]2O [testosterone],,,,,"standard curve (bound radioactivity), in words (antitestosterone): virtually straight-line standard curve"
"CCOC(C)=O [Ethyl Acetate, ethyl acetate]",54%,41%,38%,62%,
